Source: article PMC11992225, “Antibacterial compounds against non-growing and intracellular bacteria” (npj Antimicrobials and Resistance, 2025)
Several values for one entry are separate records, joined by “and”; a condition that tells them apart may be missing. Identical values can stand only once.

How the values were obtained:
[1] = system: non-growing S. aureus DSM2569; assay: Dose-dependent killing analysis (CFU spot-plating) of stationary-phase S. aureus; format: cell-based, Staphylococcus aureus; conditions: S. aureus; for Killing: average Δlog10(CFU/ml): vs 9,097 before treatment
Outline: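 Stationary-phase S. aureus DSM2569 was grown and treated for 24 h in 1:4 CA-MHB at pH 7.4. Treated samples were serially diluted 10-fold in PBS and spot-plated on LB agar, which was incubated overnight at 37 °C. Survivors were counted as CFU over three biological replicates.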

non-growing UPEC CFT073 = assay: Dose-dependent killing analysis (CFU spot-plating) of stationary-phase UPEC; format: cell-based, Escherichia coli
Outline: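 Non-growing (stationary-phase) UPEC CFT073 treated with compounds in 96-well format at 200 μl, then 10-fold serially diluted in PBS and 10 μl spots plated on LB agar. Plates incubated overnight at 37 °C; colonies counted at lowest resolvable dilution to give CFU. Three biological replicates.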

[2] = system: non-growing P. aeruginosa DSM1117; assay: Dilution-regrowth assay (OD600, start-growth-time) on stationary-phase P. aeruginosa; format: cell-based, Pseudomonas aeruginosa; conditions: P. aeruginosa; for Regrowth: OD600 after dilution into drug-free medium (mean): OD600 at 6h or 8h
Outline: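 Stationary-phase cultures grown 24 h at 37 °C, 200 rpm, in 1:4 CA-MHB with 40 mM HEPES (pH 7.4), treated 24 h; preliminary compounds at 20 μM, 4 replicates. Regrowth OD600 read every 20 min at 37 °C; start-growth-time is when OD600 exceeds 0.12.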

[3] = system: non-growing S. aureus DSM2569; assay: Dilution-regrowth assay (OD600, start-growth-time) on stationary-phase S. aureus; format: cell-based, Staphylococcus aureus; conditions: S. aureus; for Regrowth: OD600 after dilution into drug-free medium (mean): OD600 at 6h or 8h
Outline: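 Stationary-phase S. aureus cultures were grown and exposed to compound for 24 h in 1:4 CA-MHB (pH 7.4) at 37 °C in 96-well plates with 200 μl volume. After dilution into drug-free medium, regrowth was tracked in a plate reader at 37 °C with continuous shaking, reading OD600 every 20 min; EC50 came from five-parameter logistic fitting.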

With `CO[C@H]1/C=C/O[C@@]2(C)Oc3c(C)c(O)c4c(c3C2=O)C2=NC3(CCN(CC(C)C)CC3)NC2=C(NC(=O)/C(C)=C\C=C\[C@H](C)[C@H](O)[C@@H](C)[C@@H](O)[C@@H](C)[C@H](OC(C)=O)[C@@H]1C)C4=O` [Rifabutin] the “log10(CFU/ml) after treatment, single replicates” value (“log10(CFU/ml) after treatment” below) ([1]; concentration 0.1) was 8.833 log10(CFU/ml) and 8.875 log10(CFU/ml) and 8.763 log10(CFU/ml), the “Killing: average Δlog10(CFU/ml)” value ([1]; concentration 0.1) was 0.273 log10(CFU/ml) and the “log10(CFU/ml) after treatment” value ([1]; concentration 0.5) was 8.869 log10(CFU/ml) and 8.996 log10(CFU/ml) and 8.079 log10(CFU/ml). The “Killing: average Δlog10(CFU/ml)” value ([1]; concentration 0.5) was 0.449 log10(CFU/ml), the “log10(CFU/ml) after treatment” value ([1]; concentration 2.5) was 8.763 log10(CFU/ml) and 8.785 log10(CFU/ml) and 8.643 log10(CFU/ml) and the “Killing: average Δlog10(CFU/ml)” value ([1]; concentration 2.5) was 0.366 log10(CFU/ml). The “log10(CFU/ml) after treatment” value ([1]; concentration 10) was 8.778 log10(CFU/ml) and 8.806 log10(CFU/ml) and 8.756 log10(CFU/ml), the “Killing: average Δlog10(CFU/ml)” value ([1]; concentration 10) was 0.317 log10(CFU/ml) and the “bactericidal activity against non-growing UPEC (CFU counting)” value (non-growing UPEC CFT073; 24 h treatment of stationary phase culture) was “did not kill”. For the same compound, the “log10(CFU/ml) after treatment” value (non-growing UPEC CFT073; E. coli in 1:4 CA-MHB (pH 7.4), concentration 0.25) was 9.000 log10(CFU/ml) (2×) and 8.699 log10(CFU/ml), the “Killing: average Δlog10(CFU/ml)” value (non-growing UPEC CFT073; E. coli in 1:4 CA-MHB (pH 7.4), concentration 0.25, vs 8.977 before treatment) was 0.078 log10(CFU/ml) and the “log10(CFU/ml) after treatment” value (non-growing UPEC CFT073; E. coli in 1:4 CA-MHB (pH 7.4), concentration 0.5) was 9.230 log10(CFU/ml) and 8.532 log10(CFU/ml) and 8.699 log10(CFU/ml). The “Killing: average Δlog10(CFU/ml)” value (non-growing UPEC CFT073; E. coli in 1:4 CA-MHB (pH 7.4), concentration 0.5, vs 8.977 before treatment) was 0.157 log10(CFU/ml), the “log10(CFU/ml) after treatment” value (non-growing UPEC CFT073; E. coli in 1:4 CA-MHB (pH 7.4), concentration 1) was 9.322 log10(CFU/ml) and 8.477 log10(CFU/ml) and 8.301 log10(CFU/ml) and the “Killing: average Δlog10(CFU/ml)” value (non-growing UPEC CFT073; E. coli in 1:4 CA-MHB (pH 7.4), concentration 1, vs 8.977 before treatment) was 0.277 log10(CFU/ml). For the same compound, the “log10(CFU/ml) after treatment” value (non-growing UPEC CFT073; E. coli in 1:4 CA-MHB (pH 7.4), concentration 2.5) was 8.699 log10(CFU/ml) and 8.505 log10(CFU/ml) and 8.000 log10(CFU/ml), the “Killing: average Δlog10(CFU/ml)” value (non-growing UPEC CFT073; E. coli in 1:4 CA-MHB (pH 7.4), concentration 2.5, vs 8.977 before treatment) was 0.576 log10(CFU/ml) and the “log10(CFU/ml) after treatment” value (non-growing UPEC CFT073; E. coli in 1:4 CA-MHB (pH 7.4), concentration 5) was 9.041 log10(CFU/ml) and 8.447 log10(CFU/ml) and 9.000 log10(CFU/ml). For the same compound, the “Killing: average Δlog10(CFU/ml)” value (non-growing UPEC CFT073; E. coli in 1:4 CA-MHB (pH 7.4), concentration 5, vs 8.977 before treatment) was 0.148 log10(CFU/ml), the “log10(CFU/ml) after treatment” value (non-growing UPEC CFT073; E. coli in 1:4 CA-MHB (pH 7.4), concentration 10) was 8.903 log10(CFU/ml) and 8.176 log10(CFU/ml) and 8.415 log10(CFU/ml) and the “Killing: average Δlog10(CFU/ml)” value (non-growing UPEC CFT073; E. coli in 1:4 CA-MHB (pH 7.4), concentration 10, vs 8.977 before treatment) was 0.479 log10(CFU/ml). The “log10(CFU/ml) after treatment” value (non-growing UPEC CFT073; E. coli in LPM (pH 5.5), concentration 0.25) was 6.954 log10(CFU/ml) and 6.415 log10(CFU/ml) and 7.954 log10(CFU/ml), the “Killing: average Δlog10(CFU/ml)” value (non-growing UPEC CFT073; E. coli in LPM (pH 5.5), concentration 0.25, vs 7.350 before treatment) was 0.243 log10(CFU/ml) and the “log10(CFU/ml) after treatment” value (non-growing UPEC CFT073; E. coli in LPM (pH 5.5), concentration 0.5) was 7.000 log10(CFU/ml) and 6.778 log10(CFU/ml) and 7.663 log10(CFU/ml). For the same compound, the “Killing: average Δlog10(CFU/ml)” value (non-growing UPEC CFT073; E. coli in LPM (pH 5.5), concentration 0.5, vs 7.350 before treatment) was 0.203 log10(CFU/ml), the “log10(CFU/ml) after treatment” value (non-growing UPEC CFT073; E. coli in LPM (pH 5.5), concentration 1) was 6.954 log10(CFU/ml) and 6.398 log10(CFU/ml) and 7.681 log10(CFU/ml) and the “Killing: average Δlog10(CFU/ml)” value (non-growing UPEC CFT073; E. coli in LPM (pH 5.5), concentration 1, vs 7.350 before treatment) was 0.339 log10(CFU/ml). The “log10(CFU/ml) after treatment” value (non-growing UPEC CFT073; E. coli in LPM (pH 5.5), concentration 2.5) was 7.322 log10(CFU/ml) and 6.845 log10(CFU/ml) and 7.623 log10(CFU/ml), the “Killing: average Δlog10(CFU/ml)” value (non-growing UPEC CFT073; E. coli in LPM (pH 5.5), concentration 2.5, vs 7.350 before treatment) was 0.087 log10(CFU/ml) and the “log10(CFU/ml) after treatment” value (non-growing UPEC CFT073; E. coli in LPM (pH 5.5), concentration 5) was 6.477 log10(CFU/ml) and 6.845 log10(CFU/ml) and 7.462 log10(CFU/ml). For the same compound, the “Killing: average Δlog10(CFU/ml)” value (non-growing UPEC CFT073; E. coli in LPM (pH 5.5), concentration 5, vs 7.350 before treatment) was 0.422 log10(CFU/ml), the “log10(CFU/ml) after treatment” value (non-growing UPEC CFT073; E. coli in LPM (pH 5.5), concentration 10) was 7.114 log10(CFU/ml) and 6.954 log10(CFU/ml) and 7.633 log10(CFU/ml) and the “Killing: average Δlog10(CFU/ml)” value (non-growing UPEC CFT073; E. coli in LPM (pH 5.5), concentration 10, vs 7.350 before treatment) was 0.116 log10(CFU/ml). For the same compound, the “Regrowth: OD600 after dilution into drug-free medium (mean)” value ([2]; concentration 0.1) was 0.637, the “Regrowth: OD600 after dilution into drug-free medium (mean)” value ([2]; concentration 0.5) was 0.579 and the “Regrowth: OD600 after dilution into drug-free medium (mean)” value ([2]; concentration 2.5) was 0.109. The “Regrowth: OD600 after dilution into drug-free medium (mean)” value ([2]; concentration 10) was 0.093, the EC50 ([2]; Pseudomonas aeruginosa, DSM1117, regrowth delay of non-growing bacteria, 1:4 CA-MHB pH 7.4, 24 h treatment, OD600 8 h after dilution, read-out: EC50) was 942 nM and the “Regrowth: OD600 after dilution into drug-free medium (mean)” value ([3]; concentration 0.1) was 0.129. The “Regrowth: OD600 after dilution into drug-free medium (mean)” value ([3]; concentration 0.5) was 0.135, the “Regrowth: OD600 after dilution into drug-free medium (mean)” value ([3]; concentration 2.5) was 0.130 and the “Regrowth: OD600 after dilution into drug-free medium (mean)” value ([3]; concentration 10) was 0.096. It also gave an EC50 ([3]; Staphylococcus aureus, DSM2569, regrowth delay of non-growing bacteria, 1:4 CA-MHB pH 7.4, 24 h treatment, OD600 8 h after dilution, read-out: EC50) of 32 nM.
